Data on eight compounds can be found in US20100034839A1, “METHODS FOR TREATING VIRAL DISORDERS” (priority 2008, published 2010).

Test [1] concerns human B cells from peripheral blood mononuclear cells (PBMC). The test can be described thus: TLR activation of human B cells in PBMC cultures: ectopic CLIP. The format is cell-based. Conditions: PBMC from five healthy donors, 24 hours, 5 μg per ml. As to the method: (§1) FIG. 13 depicts TLR activation results in ectopic CLIP expression on human B cells from peripheral blood mononuclear cells (PBMC) cultures. FIG. 13a: human PBMC from five donors were cultured for 24 hours with toll ligands (CpG-ODN, LPS, Pam3Cys, and Poly I:C) and were stained with a pan anti-HLA-DR-FITC antibody (values of isotype controls were subtracted from the specific stains, ΔMFI). FIG. 13b: cells were stained using anti-human CLIP-FITC versus CD19-PE (values of isotype controls were subtracted from the specific stains, ΔMFI). For FIGS. 13a & 13b: nil vs. CpG p=0.06821; nil vs. LPS p=0.0390; nil vs. PAM p=0.0124. FIG. 13c: cells were stained for CLIP-FITC versus CD19-PE as described for FIG. 13b. The data represent the percent of total PBMC that are CLIP+ B cells subsequent to treatment. For FIG. 13c: nil vs. CpG p=0.0058; nil vs. LPS p=0.0254. […]
(§2) PBMC were prepared from a total of seven adult normal donors, five for examining the effects of TLR binding on the percentage of ectopic CLIP^+ B cells and changes in mean fluorescence intensity of the CLIP staining resulting from TLR stimulation with CpG-ODN, LPS, Pam-3-Cys, and Poly I:C. […] Cells were analyzed using either a BD FacsCalibur, for the five samples, or a Coulter FC500 for the two tissue typed samples. […]

The test system of test [2] is mouse splenic B cells. In words: TLR activation of mouse splenic B cells: ectopic CLIP in MHC class II. Conditions: for exogenous CLIP expression on activated mouse B cells: treatment in vitro with Toll ligand, FIG. 12d. It is filed as cell-based. As to the method: FIG. 12 depicts TLR activation of mouse splenic B cells results in ectopic CLIP in MHC class II. FIG. 12a: LPS activation of spleen cells from B6.129 mice (H-2b). B cells are detected by staining with PE conjugated anti-mouse B220, shown on Y-axis, versus staining with 15G4-FITC anti-mouse CLIP/I-Ab, as shown on the X-axis. A representative of four experiments at unique time points, 0 to 72 hours by 24-hour increments, left to right, is shown. FIG. 12b (linear representation from FIG. 12a): changes in percentages of CLIP+ B cells, left Y-axis, and quantitative depiction of increasing mean fluorescence intensity of CLIP/I-Ab staining, right Y-axis. FIG. 12c: antigen receptor engagement increases cell surface MHC class II but not ectopic CLIP. B6.129 splenocytes, untreated or treated in vitro with anti-immunoglobulin (as a surrogate for antigen) or CpG-ODN were stained with anti-mouse B220-PE versus 15G4-FITC anti-mouse CLIP/I-Ab (bars, left Y-axis) or with anti-mouse B220-PE versus anti-mouse MHC class II-FITC (I-Ab) (line graph, right Y-axis). FIG. 12d: toll ligands 9, 10 used to activate cells, listed from top down, Poly I:C, Pam3Cys, R848, LPS, CpG-ODN, and no treatment, as indicated. Shown are percentages of CLIP+ B cells in splenocytes stimulated […] from B6.129 mice, left panel; H2M-deficient mice, middle panel; Ii-deficient mice, right panel.
Total splenocytes, from either B6.129, Ii-deficient, or H2M-deficient mice were cultured with LPS for 24, 48, 72, or 96 hours as indicated. Cells were harvested and stained by two-color fluorescence using 15G4-FITC anti-mouse CLIP/I-A^b versus anti-mouse B220 PE.
Freshly isolated splenocytes, single cell suspensions of lymph node cells, resting (or activated) B cells, or primed B cells were isolated from B6.129, Ii-deficient, or H2M-deficient mice and cultured in 24 well plates in complete RPMI medium, with or without the appropriate Toll ligand, at 10^6 cells/ml. Cells were cultured for 24, 48, 72, 96, or up to 144 hours. Cells were harvested and stained by flow cytometric analysis using either a Beckman Coulter Excel or a Beckman Coulter FC500 flow cytometer. Cells were stained by two-color fluorescence using 15G4-FITC anti-mouse CLIP/I-A^b versus anti-mouse B220 PE. For co-culture experiments (5×10^5) were combined with T cells (5×10^4) in 24 well plates in complete medium, with or without the appropriate antigen. Experiments with 3A9, 2A11 or A6.A2 employed 3 mg/ml tryptic digest of HEL as a source of pre-processed antigen, i.e., peptide. Cultures were incubated overnight at […] in a humidified 5% CO2, 95% air incubator.
Multi-parameter flow cytometric analysis for the fluorescent detection of ectopic CLIP, mouse B220, human CD19 or CD20, human CLIP, human HLA-DR, and human CLIP or apoptosis were performed using a Beckman Coulter Excel or a Beckman Coulter FC500 flow cytometer (Beckman Coulter, Hialeah, Fla.). Mouse splenic cells were cultured in complete RPMI for the times indicated. Resting, primed, or activated B cells were cultured in the presence of T cells (vide supra). At the end of 16 h of culture, the cells were harvested and washed. Ethidium bromide (detected by red fluorescence) was added immediately before analysis of each tube. The cells were analyzed by first gating using forward vs. side scatter then using increased fluorescence as a measure of detection of the indicated cell surface antigens.

Test [3] deals with Raji or Daudi cells. In words: Cell surface CLIP and CD74 levels after MKN1 (bioCLIP). It is filed as cell-based, human. As to the method:
The ability of MKN1 (bioCLIP) to alter cell surface CLIP and CD74 levels was also determined using Raji or Daudi cells.

In test [4] the test system is cell surface CLIP on Raji and Daudi cells. The test can be described thus: Competition of synthetic peptides with cell surface CLIP (Fitc anti-human CLIP). The format is cell-based. The note with it: biotinylated competing peptide. The source says: Based on a computational model comparing the peptide content of TNP mixture and identifying those peptides that would have the likeliest ability to compete for the peptide/antigen binding site for MHC class II (human HLA-DR, DP, and DQ), several peptide candidates were synthesized and examined for activity. The purpose of the study was to determine if synthetic peptides can compete for binding with CLIP peptides as measured with either Fitc anti-human CLIP antibody or, comparatively in the case of biotinylated peptides, with Streptavidin.
Cell Culture Conditions: The Raji and Daudi cell lines were purchased from American Type Culture Collection, were thawed, and grown in RPMI 1640 medium supplemented with standard supplements, including 10% fetal calf serum, gentamycin, penicillin, streptomycin, sodium pyruvate, HEPES buffer, 1-glutamine, and 2-ME.
Protocol: Cells were plated into a 12 well plate with 3 mls total volume containing approximately 1.5×10^6/well for Daudi cells and 3.0×10^6/well for Raji cells. Treatment groups included no treatment as control; MKN 3 and MKN 5 at 50 microMolar final concentration based on the reported molarity of the synthesized compounds.
The cells were incubated at 37° C. in an atmosphere containing 5% CO2 and approximately 92% humidity. The cells were incubated for 4 and 24 hours. At each time point, the cells from that experimental time were harvested and stained for flow cytometric analysis of cell surface expression of CLIP (MHC Class II invariant peptide, human) by using the commercially available (Becton/Dickinson/PHarmingen) anti-human CLIP Fitc. Catalogue #555981 versus Streptavidin.
Harvested cells were stained using standard staining procedure that called for a 1:100 dilution of Fitc-anti-human CLIP or isotype control versus 1:200 dilution of the commercially prepared Streptavidin. Following staining on ice for 25 minutes, cells were washed with PBS/FCS and resuspended in 100 microliters and added to staining tubes containing 400 microliters of PBS. Samples were acquired and analyzed on a Coulter Excel Flow Cytometer.
In the Histogram analyses of FIGS. 5-7 the Y axis represents cell number of the 5000 live cells versus the X axis which is a reflection of relative Fitc fluorescence versus Streptavidin-PE (eBioscience, Cat. #12-4317) that will bind with high affinity to cell-bound biotinylated peptides. The distance between the histogram from the isotype control staining versus the histogram reflecting the specific stain and is a measure of level of cell surface CLIP or the biotinylated peptide when stained with Streptavidin on a population of live Raji or Daudi cells as indicated.

The test system of test [5] is CLIP^+ B cells in human PBMC. The test can be described thus: Peptide replacement of CLIP on R848-activated human PBMC B cells. The format is cell-based. Conditions: PBMC of two donors cultured with R848 for 48 hours with peptide. As to the method:
as §1, §2

Test [6] has as its system B cell surface CLIP. The test can be described thus: B cell surface CLIP after 2-Deoxyglucose and dichloroacetate (FIG. 4). It is filed as cell-based.

No end group written: not given here. *: point of attachment. Biotin = O=C1N[C@H]2[C@H](CS[C@H]2CCCCC(=O)*)N1

As to lipopolysaccharide [LPS], the “ectopic CLIP on human B cells” value in test [1] is recorded as “Statistically significant increases in ectopic CLIP”. For the same compound, in test [2] (in vitro stimulation of resting mouse splenocytes, 0 to 72 hours), the “exogenous CLIP associated with MHC class II on splenic B cells” value is listed as “time-dependent increase in exogenous CLIP associated with MHC class II”. For the same compound, in test [2], the “exogenous CLIP expression on activated mouse B cells” value (shortened to “exogenous CLIP expression”) is recorded as “resulted in exogenous CLIP expression on the activated mouse B cells”.

Turning to “polyinosinic:polycytidylic acid [Poly I:C]”, the “exogenous CLIP expression” value in test [2] is “resulted in exogenous CLIP expression on the activated mouse B cells”.

As for “SGGGSKMRMATPLLMQALY (Biotin-SGGGSKMRMATPLLMQALY) [MKN1]”, in test [3], the “cell surface CLIP and CD74 levels” value was “alters cell surface CLIP and CD74 levels”.

In the case of KALVQNDTLLQVKG [SEQ ID NO 1], the “cell surface bound CLIP” value in test [4] (4 hours) was “small decreases in cell surface bound CLIP”; in test [4] (24 hours), “significant decreases”.

With “(S)-(2,3-bis(palmitoyloxy)-(2RS)-propyl)-N-palmitoyl-(R)-Cys-(S)-Ser(S)-Lys4-OH, trihydrochloride [Pam3Cys]”, in test [2], the “exogenous CLIP expression” value is reported as “resulted in exogenous CLIP expression on the activated mouse B cells”.

Regarding ANSGIIGDITEEVGGQY [VGV-pB], the “percentage of CLIP^+ B cells and level of CLIP per B cell” value in test [5] is “reduced the frequency of CLIP^+ B cells and the level of CLIP per cell in one individual but not the other”.

On to `CCOCc1nc2c(N)nc3ccccc3c2n1CC(C)(C)O` [R848, imidazoquinoline resiquimod], for which, in test [2], the “exogenous CLIP expression” value is listed as “resulted in exogenous CLIP expression on the activated mouse B cells”.

Turning to `O=CC[C@@H](O)[C@H](O)[C@H](O)CO` [2-Deoxyglucose, 2-deoxy-D-glucose], in test [6], the “B cell surface CLIP” value was “affects B cell surface CLIP”.
